The experiment relates to MV4-11 cells. The experiment can be described thus: Cell proliferation assay MV4;11 (CellTiter-Glo, 72 hours). In kind it is cell-based. Conditions: Homo sapiens; MV4;11 leukemia cell line, 72 hours; read-out: MV4; 11 IC50. Summed up: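 MV4-11 cells (MLL1-AF4 fusion) exposed 72 h at 37 °C to 8 compound concentrations, final 0.632–2000 nM. Viability by CellTiter-Glo luminescence as % of vehicle RLU; % max inhibition = 100 − viability at top concentration.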

Some results are limits rather than exact numbers.

For `CC(C)N(CCC#N)C(=O)c1cc(F)ccc1Oc1cncnc1N1CC2(CCN(C[C@@H]3CC[C@@H](NS(=O)(=O)N(C)C)CO3)CC2)C1` [Example 183, N-(2-Cyanoethyl)-2-((4-(7-(((2S,5R)-5-((N,N-dimethylsulfamoyl)amino)tetrahydro-2H-pyran-2-yl)methyl)-2,7-diazaspiro[3.5]nonan-2-yl)pyrimidin-5-yl)oxy)-5-fluoro-N-isopropylbenzamide], the IC50 was less than 100 nM.
Then `CC(C)N(CCC#N)C(=O)c1cc(F)ccc1Oc1cncnc1N1CC2(CCN(C[C@@H]3CC[C@@H](NS(=O)(=O)N4CCC4)CO3)CC2)C1` [Example 184, 2-((4-(7-(((2S,5R)-5-(Azetidine-1-sulfonamido)tetrahydro-2H-pyran-2-yl)methyl)-2,7-diazaspiro[3.5]nonan-2-yl)pyrimidin-5-yl)oxy)-N-(2-cyanoethyl)-5-fluoro-N-isopropylbenzamide], with less than 100 nM; and `CCS(=O)(=O)N[C@@H]1CC[C@@H](CN2CCC3(CC2)CN(c2ncnnc2Oc2ccc(F)cc2C(=O)N(CC(F)F)C(C)C)C3)OC1` [Example 185, N-(2,2-Difluoroethyl)-2-((5-(7-(((2S,5R)-5-(ethylsulfonamido)tetrahydro-2H-pyran-2-yl)methyl)-2,7-diazaspiro[3.5]nonan-2-yl)-1,2,4-triazin-6-yl)oxy)-5-fluoro-N-isopropylbenzamide], with less than 100 nM; and `CC(C)N(CC(F)F)C(=O)c1cc(F)ccc1Oc1nncnc1N1CC2(CCN(C[C@@H]3CC[C@@H](NS(=O)(=O)C4CC4)CO3)CC2)C1` [Example 186, 2-((5-(7-(((2S,5R)-5-(Cyclopropanesulfonamido)tetrahydro-2H-pyran-2-yl)methyl)-2,7-diazaspiro[3.5]nonan-2-yl)-1,2,4-triazin-6-yl)oxy)-N-(2,2-difluoroethyl)-5-fluoro-N-isopropylbenzamide], with less than 100 nM.
Then `CCNS(=O)(=O)N[C@@H]1CC[C@@H](CN2CCC3(CC2)CN(c2ncnnc2Oc2ccc(F)cc2C(=O)N(CC(F)F)C(C)C)C3)OC1` [Example 188, N-(2,2-Difluoroethyl)-2-((5-(7-(((2S,5R)-5-((N-ethylsulfamoyl)amino)tetrahydro-2H-pyran-2-yl)methyl)-2,7-diazaspiro[3.5]nonan-2-yl)-1,2,4-triazin-6-yl)oxy)-5-fluoro-N-isopropylbenzamide], with less than 100 nM; and `CC(C)N(CC(F)F)C(=O)c1cc(F)ccc1Oc1nncnc1N1CC2(CCN(C[C@@H]3CC[C@@H](NS(=O)(=O)N4CCC4)CO3)CC2)C1` [Example 189, 2-((5-(7-(((2S,5R)-5-(Azetidine-1-sulfonamido)tetrahydro-2H-pyran-2-yl)methyl)-2,7-diazaspiro[3.5]nonan-2-yl)-1,2,4-triazin-6-yl)oxy)-N-(2,2-difluoroethyl)-5-fluoro-N-isopropylbenzamide], with less than 100 nM.
Under `CCS(=O)(=O)N[C@@H]1CC[C@@H](CN2CCC3(CC2)CN(c2ncnnc2Oc2ccc(F)cc2C(=O)N(CC(F)(F)F)C(C)C)C3)OC1` [Example 190, 2-((5-(7-(((2S,5R)-5-(Ethylsulfonamido)tetrahydro-2H-pyran-2-yl)methyl)-2,7-diazaspiro[3.5]nonan-2-yl)-1,2,4-triazin-6-yl)oxy)-5-fluoro-N-isopropyl-N-(2,2,2-trifluoroethyl)benzamide] stands less than 100 nM.
Turning to `CC(C)N(CC(F)(F)F)C(=O)c1cc(F)ccc1Oc1nncnc1N1CC2(CCN(C[C@@H]3CC[C@@H](NS(=O)(=O)C4CC4)CO3)CC2)C1` [Example 191, 2-((5-(7-(((2S,5R)-5-(Cyclopropanesulfonamido)tetrahydro-2H-pyran-2-yl)methyl)-2,7-diazaspiro[3.5]nonan-2-yl)-1,2,4-triazin-6-yl)oxy)-5-fluoro-N-isopropyl-N-(2,2,2-trifluoroethyl)benzamide], the IC50 was less than 100 nM.
Under `CCS(=O)(=O)N[C@@H]1CC[C@@H](CN2CCC3(CC2)CN(c2ncnnc2Oc2ccc(F)cc2C(=O)N(C(C)C)C(C)C)C3)OC1` [Example 195, 2-((5-(7-(((2S,5R)-5-(Ethylsulfonamido)tetrahydro-2H-pyran-2-yl)methyl)-2,7-diazaspiro[3.5]nonan-2-yl)-1,2,4-triazin-6-yl)oxy)-5-fluoro-N,N-diisopropylbenzamide] stands less than 100 nM; under `CC(C)N(C(=O)c1cc(F)ccc1Oc1nncnc1N1CC2(CCN(C[C@@H]3CC[C@@H](NS(=O)(=O)C4CC4)CO3)CC2)C1)C(C)C` [Example 196, 2-((5-(7-(((2S,5R)-5-(Cyclopropanesulfonamido)tetrahydro-2H-pyran-2-yl)methyl)-2,7-diazaspiro[3.5]nonan-2-yl)-1,2,4-triazin-6-yl)oxy)-5-fluoro-N,N-diisopropylbenzamide], less than 100 nM.
On to `CCNS(=O)(=O)N[C@@H]1CC[C@@H](CN2CCC3(CC2)CN(c2ncnnc2Oc2ccc(F)cc2C(=O)N(C(C)C)C(C)C)C3)OC1` [Example 198, 2-((5-(7-(((2S,5R)-5-((N-Ethylsulfamoyl)amino)tetrahydro-2H-pyran-2-yl)methyl)-2,7-diazaspiro[3.5]nonan-2-yl)-1,2,4-triazin-6-yl)oxy)-5-fluoro-N,N-diisopropylbenzamide], for which the IC50 was less than 100 nM.
Take `CC(C)N(C(=O)c1cc(F)ccc1Oc1nncnc1N1CC2(CCN(C[C@@H]3CC[C@@H](NS(=O)(=O)N4CCC4)CO3)CC2)C1)C(C)C` [Example 199, 2-((5-(7-(((2S,5R)-5-(Azetidine-1-sulfonamido)tetrahydro-2H-pyran-2-yl)methyl)-2,7-diazaspiro[3.5]nonan-2-yl)-1,2,4-triazin-6-yl)oxy)-5-fluoro-N,N-diisopropylbenzamide]: the IC50 was less than 100 nM.
Regarding `C[C@@H]1COC[C@@H](C)N1C(=O)c1cc(F)ccc1Oc1cncnc1N1CC2(CCN(C[C@@H]3CC[C@@H](NS(=O)(=O)N4CCC[C@@H]4C)CO3)CC2)C1` [Example 209, (S)-N-((3R,6S)-6-((2-(5-(2-((3R,5R)-3,5-Dimethylmorpholine-4-carbonyl)-4-fluorophenoxy)pyrimidin-4-yl)-2,7-diazaspiro[3.5]nonan-7-yl)methyl)tetrahydro-2H-pyran-3-yl)-2-methylpyrrolidine-1-sulfonamide], the IC50 is less than 100 nM.
Then `CC(C)N(CC(F)F)C(=O)c1cc(F)ccc1Oc1cncnc1N1CC2(CCN(C[C@@H]3CC[C@@H](NS(=O)(=O)N(C)CCCO)CO3)CC2)C1` [Example 214, N-(2,2-difluoroethyl)-5-fluoro-2-((4-(7-(((2S,5R)-5-((N-(3-hydroxypropyl)-N-methylsulfamoyl)amino)tetrahydro-2H-pyran-2-yl)methyl)-2,7-diazaspiro[3.5]nonan-2-yl)pyrimidin-5-yl)oxy)-N-isopropylbenzamide], with less than 100 nM; and `CCN(C(=O)c1cc(F)ccc1Oc1cncnc1N1CC2(CCN(C[C@@H]3CC[C@@H](NC(=O)Nc4ccccc4)CO3)CC2)C1)C(C)C` [Example 215, N-Ethyl-5-fluoro-N-isopropyl-2-((4-(7-(((2S,5R)-5-(3-phenylureido)tetrahydro-2H-pyran-2-yl)methyl)-2,7-diazaspiro[3.5]nonan-2-yl)pyrimidin-5-yl)oxy)benzamide], with 100 to 1000 nM.
Take `CCN(C(=O)c1cc(F)ccc1Oc1cnc(C)nc1N1CC2(CCN(C[C@@H]3CC[C@@H](NS(=O)(=O)CC)CO3)CC2)C1)C(C)C` [Example 216, N-Ethyl-2-((4-(7-(((2S,5R)-5-(ethylsulfonamido)tetrahydro-2H-pyran-2-yl)methyl)-2,7-diazaspiro[3.5]nonan-2-yl)-2-methylpyrimidin-5-yl)oxy)-5-fluoro-N-isopropylbenzamide]: the IC50 lay within 100 to 1000 nM.
Under `C=CS(=O)(=O)N[C@@H]1CC[C@@H](CN2CCC3(CC2)CN(c2ncncc2Oc2ccc(F)cc2C(=O)N(CC)C(C)C)C3)OC1` [Example 219, N-Ethyl-5-fluoro-N-isopropyl-2-((4-(7-(((2S,5R)-5-(vinylsulfonamido)tetrahydro-2H-pyran-2-yl)methyl)-2,7-diazaspiro[3.5]nonan-2-yl)pyrimidin-5-yl)oxy)benzamide] stands less than 100 nM; under `CCN(C(=O)c1cc(F)ccc1Oc1cncnc1N1CC2(CCN(C[C@@H]3CC[C@@H](NS(=O)(=O)CCN(C)C)CO3)CC2)C1)C(C)C` [Example 220, 2-((4-(7-(((2S,5R)-5-((2-(Dimethylamino)ethyl)sulfonamido)tetrahydro-2H-pyran-2-yl)methyl)-2,7-diazaspiro[3.5]nonan-2-yl)pyrimidin-5-yl)oxy)-N-ethyl-5-fluoro-N-isopropylbenzamide], 100 to 1000 nM.
Turning to `CC(C)N(C(=O)c1cc(F)ccc1Oc1cncnc1N1CC2(CCN(C[C@@H]3CC[C@@H](NS(=O)(=O)N4CC5(CCO5)C4)CO3)CC2)C1)C(C)C` [Example 221, 2-((4-(7-(((2S,5R)-5-(1-Oxa-6-azaspiro[3.3]heptane-6-sulfonamido)tetrahydro-2H-pyran-2-yl)methyl)-2,7-diazaspiro[3.5]nonan-2-yl)pyrimidin-5-yl)oxy)-5-fluoro-N,N-diisopropylbenzamide], the IC50 is less than 100 nM.
Then `CC(C)N(C(=O)c1cc(F)ccc1Oc1cncnc1N1CC2(CCN(C[C@@H]3CC[C@@H](NS(=O)(=O)N4CC5(COC5)C4)CO3)CC2)C1)C(C)C` [Example 222, 2-((4-(7-(((2S,5R)-5-(2-Oxa-6-azaspiro[3.3]heptane-6-sulfonamido)tetrahydro-2H-pyran-2-yl)methyl)-2,7-diazaspiro[3.5]nonan-2-yl)pyrimidin-5-yl)oxy)-5-fluoro-N,N-diisopropylbenzamide], with less than 100 nM.
Then `CC(C)N(C(=O)c1cc(F)ccc1Oc1cncnc1N1CC2(CCN(C[C@@H]3CC[C@@H](NS(=O)(=O)N4CC5(CCOC5)C4)CO3)CC2)C1)C(C)C` [Example 223, 2-((4-(7-(((2S,5R)-5-(6-Oxa-2-azaspiro[3.4]octane-2-sulfonamido)tetrahydro-2H-pyran-2-yl)methyl)-2,7-diazaspiro[3.5]nonan-2-yl)pyrimidin-5-yl)oxy)-5-fluoro-N,N-diisopropylbenzamide], with less than 100 nM.

Source of the values: patent US11919901B2 (Syndax Pharmaceuticals, Inc., priority 2021, dated 2024).
